Values joined by “and” are separate entries in the source; they are usually repeats but may differ in a detail not shown here. Identical values can stand only once.
System: NCI-H226 complex tumor spheroids, viability
Assay: Anticancer human tumor NCI-H226 cell line growth inhibition;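 also: spheroids exposed to compound for 7 days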;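 as to viability, T/C: 100% = DMSO vehicle control viability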
Conditions: for viability, T/C: stronger effect = lower value
Procedure, shortened: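 Single agents and combinations were tested on spheroids built from tumor cells plus HUVEC and hMSC, at half-log dilutions starting at or near clinical Cmax, else 10 microM; final DMSO 0.25% (v/v).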

[1] = curve of first compound, second compound 0.003 µM
[2] = curve of first compound, second compound 0.00949 µM
[3] = curve of first compound, second compound 0.03 µM
[4] = curve of first compound, second compound 0.0949 µM
[5] = curve of first compound, second compound 0.3 µM
[6] = second compound 0.003 µM, first compound 0.0316 µM
[7] = second compound 0.003 µM, first compound 0.1 µM
[8] = second compound 0.003 µM, first compound 0.316 µM
[9] = second compound 0.003 µM, first compound 1 µM
[10] = second compound 0.003 µM, first compound 3.16 µM
[11] = second compound 0.003 µM, first compound 10 µM
[12] = second compound 0.00949 µM, first compound 0.0316 µM
[13] = second compound 0.00949 µM, first compound 0.1 µM
[14] = second compound 0.00949 µM, first compound 0.316 µM
[15] = second compound 0.00949 µM, first compound 1 µM
[16] = second compound 0.00949 µM, first compound 3.16 µM
[17] = second compound 0.00949 µM, first compound 10 µM
[18] = second compound 0.03 µM, first compound 0.0316 µM
[19] = second compound 0.03 µM, first compound 0.1 µM
[20] = second compound 0.03 µM, first compound 0.316 µM
[21] = second compound 0.03 µM, first compound 1 µM
[22] = second compound 0.03 µM, first compound 3.16 µM
[23] = second compound 0.03 µM, first compound 10 µM
[24] = second compound 0.0949 µM, first compound 0.0316 µM
[25] = second compound 0.0949 µM, first compound 0.1 µM
[26] = second compound 0.0949 µM, first compound 0.316 µM
[27] = second compound 0.0949 µM, first compound 1 µM
[28] = second compound 0.0949 µM, first compound 3.16 µM
[29] = second compound 0.0949 µM, first compound 10 µM
[30] = second compound 0.3 µM, first compound 0.0316 µM
[31] = second compound 0.3 µM, first compound 0.1 µM
[32] = second compound 0.3 µM, first compound 0.316 µM
[33] = second compound 0.3 µM, first compound 1 µM
[34] = second compound 0.3 µM, first compound 3.16 µM
[35] = second compound 0.3 µM, first compound 10 µM

CC(C)n1c(=O)n(C)c2cnc3cc(F)c(-c4ccc(OCCCN5CCCCC5)nc4)cc3c21 + Cn1nnc2c(C(N)=O)ncn2c1=O
IC50 (curve of first compound, second compound 1 µM): 5.83 µM
IC50 (curve of first compound, second compound 3.16 µM): 5.92 µM
IC50 (curve of first compound, second compound 10 µM): 6 µM
IC50 (curve of first compound, second compound 31.6 µM): 5.72 µM
IC50 (curve of first compound, second compound 100 µM): > 10 µM
viability, T/C (second compound 1 µM, first compound 0.0316 µM): 111%
viability, T/C (second compound 1 µM, first compound 0.1 µM): 115%
viability, T/C (second compound 1 µM, first compound 0.316 µM): 120%
viability, T/C (second compound 1 µM, first compound 1 µM): 118%
viability, T/C (second compound 1 µM, first compound 3.16 µM): 102%
viability, T/C (second compound 1 µM, first compound 10 µM): 4.4%
viability, T/C (second compound 3.16 µM, first compound 0.0316 µM): 112%
viability, T/C (second compound 3.16 µM, first compound 0.1 µM): 113%
viability, T/C (second compound 3.16 µM, first compound 0.316 µM): 114%
viability, T/C (second compound 3.16 µM, first compound 1 µM): 102%
viability, T/C (second compound 3.16 µM, first compound 3.16 µM): 104%
viability, T/C (second compound 3.16 µM, first compound 10 µM): 4.91%
viability, T/C (second compound 10 µM, first compound 0.0316 µM): 114%
viability, T/C (second compound 10 µM, first compound 0.1 µM): 119%
viability, T/C (second compound 10 µM, first compound 0.316 µM): 109%
viability, T/C (second compound 10 µM, first compound 1 µM): 114%
viability, T/C (second compound 10 µM, first compound 3.16 µM): 109%
viability, T/C (second compound 10 µM, first compound 10 µM): 3.29%
viability, T/C (second compound 31.6 µM, first compound 0.0316 µM): 117%
viability, T/C (second compound 31.6 µM, first compound 0.1 µM): 108%
viability, T/C (second compound 31.6 µM, first compound 0.316 µM): 110%
viability, T/C (second compound 31.6 µM, first compound 1 µM): 99.4%
viability, T/C (second compound 31.6 µM, first compound 3.16 µM): 99.9%
viability, T/C (second compound 31.6 µM, first compound 10 µM): 3.07%
viability, T/C (second compound 100 µM, first compound 0.0316 µM): 122%
viability, T/C (second compound 100 µM, first compound 0.1 µM): 115%
viability, T/C (second compound 100 µM, first compound 0.316 µM): 115%
viability, T/C (second compound 100 µM, first compound 1 µM): 117%
viability, T/C (second compound 100 µM, first compound 3.16 µM): 105%
viability, T/C (second compound 100 µM, first compound 10 µM): 64%

COc1ccc([C@@H](O)c2cc(-c3ncnc4cc(N5CCOCC5)ccc34)c(F)cc2Cl)nn1 + CC[C@@]1(O)C(=O)OCc2c1cc1n(c2=O)Cc2cc3c(CN(C)C)c(O)ccc3nc2-1
IC50 [1]: 4.24 µM
IC50 [2]: 2.92 µM
IC50 [3]: 1.88 µM
IC50 [4]: 2.48 µM
IC50 [5]: 1.52 µM
viability, T/C [6]: 98.2%
viability, T/C [7]: 96.3%
viability, T/C [8]: 88.3%
viability, T/C [9]: 71.1%
viability, T/C [10]: 56.7%
viability, T/C [11]: 34.7%
viability, T/C [12]: 87.8%
viability, T/C [13]: 98.7%
viability, T/C [14]: 90.6%
viability, T/C [15]: 74.5%
viability, T/C [16]: 48.9%
viability, T/C [17]: 35.2%
viability, T/C [18]: 79.6%
viability, T/C [19]: 81.7%
viability, T/C [20]: 75.6%
viability, T/C [21]: 57.1%
viability, T/C [22]: 44.1%
viability, T/C [23]: 30.2%
viability, T/C [24]: 90.4%
viability, T/C [25]: 83.1%
viability, T/C [26]: 74.8%
viability, T/C [27]: 65.2%
viability, T/C [28]: 44.8%
viability, T/C [29]: 30.3%
viability, T/C [30]: 68.1%
viability, T/C [31]: 73.2%
viability, T/C [32]: 65.9%
viability, T/C [33]: 55.8%
viability, T/C [34]: 39.8%
viability, T/C [35]: 30.8%

CNCc1ccc(-c2cc(-c3nc(-c4ccc(S(=O)(=O)C(C)C)cc4)cnc3N)on2)cc1
viability, T/C (compound 0.00949 µM): 109% and 97.8% and 83.3%
viability, T/C (compound 0.03 µM): 126% and 123% and 90.1%
viability, T/C (compound 0.0949 µM): 132% and 112% and 106%
viability, T/C (compound 0.3 µM): 124% and 127% and 118%
viability, T/C (compound 0.949 µM): 20% and 109% (2×)
viability, T/C (compound 3 µM): 0.4% and 2.72% and 0.64%
IC50 (curve of compound): 0.678 µM and 1.8 µM and 1.71 µM

COc1cc(C)[nH]c(=O)c1CN1CCc2c(Cl)cc(C(OC)C3COC3)c(Cl)c2C1=O (configuration not stated) + CC[C@@]1(O)C(=O)OCc2c1cc1n(c2=O)Cc2cc3c(CN(C)C)c(O)ccc3nc2-1
IC50 [1]: > 10 µM
IC50 [2]: > 10 µM
IC50 [3]: > 10 µM
IC50 [4]: > 10 µM
IC50 [5]: > 10 µM
viability, T/C [6]: 93.7%
viability, T/C [7]: 123%
viability, T/C [8]: 110%
viability, T/C [9]: 122%
viability, T/C [10]: 112%
viability, T/C [11]: 98.5%
viability, T/C [12]: 88.6%
viability, T/C [13]: 102%
viability, T/C [14]: 100%
viability, T/C [15]: 95.8%
viability, T/C [16]: 99.2%
viability, T/C [17]: 97.3%
viability, T/C [18]: 86.4%
viability, T/C [19]: 87%
viability, T/C [20]: 80.6%
viability, T/C [21]: 92.7%
viability, T/C [22]: 92.6%
viability, T/C [23]: 87.4%
viability, T/C [24]: 97.3%
viability, T/C [25]: 93.1%
viability, T/C [26]: 86.4%
viability, T/C [27]: 92.9%
viability, T/C [28]: 88.3%
viability, T/C [29]: 81.6%
viability, T/C [30]: 71.4%
viability, T/C [31]: 73.3%
viability, T/C [32]: 72%
viability, T/C [33]: 75.2%
viability, T/C [34]: 69.9%
viability, T/C [35]: 72.9%
